Measurements: ChEMBL document CHEMBL5728119, “1,2-dithiolane compounds useful in neuroprotection, autoimmune and cancer diseases and conditions” (2020)

What was measured:
[1] = molecular target: Tyrosine-protein kinase Fyn (Homo sapiens, UniProt P06241); assay: (§1) Radioisotope Filter Binding Assay: IC50 Table 13-20: The protocol calls for test compound of the invention to be incubated with kinase, substrate, cofactors, and radio-isotope-labeled ATP (33P-gamma-ATP). The reaction mixtures are then spotted onto filter papers which bind the radioisotope labeled catalytic product. Unreacted phosphate is removed via washing. The reagents used include base reaction buffer; 20 mM Hepes (pH 7.5), 10 mM MgCl2, 1 mM EGTA, 0.02% Brij35, 0.02 mg/ml BSA, 0.1 mM Na3VO4, 2 mM DTT, 1% DMSO. The reaction procedure include the following steps: (1) prepare indicated substrate in freshly prepared base reaction buffer, (2) deliver any required cofactors to the substrate solution above, (3) deliver indicated kinase into the substrate solution and gently mix, (4) deliver compounds in DMSO into the kinase reaction mixture by Acoustic technology (Echo550; nanoliter range), incubate for 20 minutes at room temperature, (5) deliver 33P-ATP (specific activity 10 μCi/μL) into the reaction mixture to initiate the reaction, (6) incubate kinase reaction for 2 hours at room temperature, (7) reactions are spotted onto P81 ion exchange paper, (8) detect kinase activity by filter-binding method.
[2] = molecular target: T1, Phosphatidylinositol 4,5-bisphosphate 3-kinase catalytic subunit delta isoform (Homo sapiens, UniProt O00329); assay: as §1
T1 sequence (O00329 whole entry): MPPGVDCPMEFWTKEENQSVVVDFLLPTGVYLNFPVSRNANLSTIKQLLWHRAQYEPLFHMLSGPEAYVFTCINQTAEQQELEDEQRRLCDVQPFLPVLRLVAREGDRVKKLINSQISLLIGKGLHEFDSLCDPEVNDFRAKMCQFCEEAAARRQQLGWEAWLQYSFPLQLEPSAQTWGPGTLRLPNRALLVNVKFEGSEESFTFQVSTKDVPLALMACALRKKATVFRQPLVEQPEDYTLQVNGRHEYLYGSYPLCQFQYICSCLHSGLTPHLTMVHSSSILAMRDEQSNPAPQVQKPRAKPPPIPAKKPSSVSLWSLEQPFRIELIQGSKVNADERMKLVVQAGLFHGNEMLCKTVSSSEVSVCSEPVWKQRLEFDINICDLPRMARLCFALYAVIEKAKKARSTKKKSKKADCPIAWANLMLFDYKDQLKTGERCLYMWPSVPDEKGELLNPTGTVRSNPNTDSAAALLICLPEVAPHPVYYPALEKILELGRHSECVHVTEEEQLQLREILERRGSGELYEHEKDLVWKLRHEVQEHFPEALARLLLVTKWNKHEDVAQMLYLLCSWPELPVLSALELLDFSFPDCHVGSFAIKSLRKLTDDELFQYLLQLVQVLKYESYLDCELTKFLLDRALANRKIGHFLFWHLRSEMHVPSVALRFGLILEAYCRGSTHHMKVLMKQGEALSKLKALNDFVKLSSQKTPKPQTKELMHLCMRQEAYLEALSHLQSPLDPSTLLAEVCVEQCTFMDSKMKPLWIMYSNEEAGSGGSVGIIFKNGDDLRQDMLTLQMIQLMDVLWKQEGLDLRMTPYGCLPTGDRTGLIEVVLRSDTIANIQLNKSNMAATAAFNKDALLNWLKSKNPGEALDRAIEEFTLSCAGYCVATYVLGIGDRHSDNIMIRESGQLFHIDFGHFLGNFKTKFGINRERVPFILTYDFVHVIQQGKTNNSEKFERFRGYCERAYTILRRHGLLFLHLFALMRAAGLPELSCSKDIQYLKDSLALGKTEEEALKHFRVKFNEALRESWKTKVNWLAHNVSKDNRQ

Chain of Tyrosine-protein kinase Fyn (P06241 whole entry): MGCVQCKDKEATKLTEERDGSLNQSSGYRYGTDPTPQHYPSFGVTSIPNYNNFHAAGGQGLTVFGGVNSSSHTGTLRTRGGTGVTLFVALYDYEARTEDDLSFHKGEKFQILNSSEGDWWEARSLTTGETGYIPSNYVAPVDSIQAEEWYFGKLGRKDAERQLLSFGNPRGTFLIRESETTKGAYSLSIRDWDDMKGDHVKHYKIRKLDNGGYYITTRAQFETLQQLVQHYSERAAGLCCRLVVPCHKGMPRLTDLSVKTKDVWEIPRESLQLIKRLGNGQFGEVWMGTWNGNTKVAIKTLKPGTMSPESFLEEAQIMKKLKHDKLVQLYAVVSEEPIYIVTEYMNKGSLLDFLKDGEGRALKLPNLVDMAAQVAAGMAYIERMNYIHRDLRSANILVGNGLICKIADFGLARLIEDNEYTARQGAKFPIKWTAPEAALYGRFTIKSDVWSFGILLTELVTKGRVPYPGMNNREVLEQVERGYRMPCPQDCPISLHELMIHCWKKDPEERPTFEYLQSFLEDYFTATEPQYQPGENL

Row | IC50 [1] | IC50 [2] | SMILES
1 | 750 nM | – | Nc1ncnc2c1c(-c1ccc(Oc3ccccc3)c(F)c1)nn2CC1SSCC1OC(=O)c1ccccc1 (configuration not stated)
2 | – | 750 nM | Nc1nc2cc(-c3nn(C[C@@H]4SSC[C@H]4OC(=O)c4ccccc4)c4ncnc(N)c34)ccc2o1 (relative stereo)
